Reference: patent US12583858B2 (Genentech, Inc., priority 2015, dated 2026)

Target: T1, TDO2 (Homo sapiens, UniProt P48775)
T1 construct: decreased levels of NFK in SW48 cells (high TDO expressing cells)
Assay: TDO2 cell assay (NFK GreenScreen, SW48 cells)
Type: cell-based
Settings: SW48 cells (high TDO expressing), 200 uM tryptophan, 24 hours; Table 3; read-out: TDO2 Cell Fluor EC50

T1 sequence (P48775 whole entry): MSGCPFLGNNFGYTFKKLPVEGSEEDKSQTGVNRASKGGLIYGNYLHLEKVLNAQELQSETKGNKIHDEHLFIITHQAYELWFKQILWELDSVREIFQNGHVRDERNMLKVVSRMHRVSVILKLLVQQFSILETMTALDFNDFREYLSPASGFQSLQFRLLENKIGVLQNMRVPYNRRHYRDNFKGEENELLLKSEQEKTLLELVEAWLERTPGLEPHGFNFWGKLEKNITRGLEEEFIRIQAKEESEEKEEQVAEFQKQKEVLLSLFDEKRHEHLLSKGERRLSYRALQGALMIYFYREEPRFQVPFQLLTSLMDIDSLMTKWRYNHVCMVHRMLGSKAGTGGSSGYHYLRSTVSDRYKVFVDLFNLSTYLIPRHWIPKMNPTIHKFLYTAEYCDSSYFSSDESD

SMILES | EC50
Cc1ccc2c(c1)C(C1COCC1O)n1cncc1-2 (single isomer, unassigned) [Example 110a] | 0.52 µM
Cc1ccc2c(c1)C(C1COCC1O)n1cncc1-2 (single isomer, unassigned) [Example 110b] | > 25 µM
Cc1ccc2c(c1)C(C1COCC1O)n1cncc1-2 (single isomer, unassigned) [Example 110c] | 3.9 µM
Cc1ccc2c(c1)C(C1COCC1O)n1cncc1-2 (single isomer, unassigned) [Example 110d] | > 25 µM
Nc1ncc2c(n1)CCC(C1c3ccccc3-c3cncn31)C2O (single isomer, unassigned) [Example 111a] | 0.54 µM
Nc1ncc2c(n1)CCC(C1c3ccccc3-c3cncn31)C2O (single isomer, unassigned) [Example 111b] | 0.12 µM
Nc1ncc2c(n1)CCC(C1c3ccccc3-c3cncn31)C2O (single isomer, unassigned) [Example 111c] | 7.8 µM
Nc1ncc2c(n1)CCC(C1c3ccccc3-c3cncn31)C2O (single isomer, unassigned) [Example 111d] | > 25 µM
Nc1ncc2c(n1)CCC(C1c3ccccc3-c3cncn31)C2O (single isomer, unassigned) [Example 111e] | 5.7 µM
Nc1ncc2c(n1)CCC(C1c3ccccc3-c3cncn31)C2O (single isomer, unassigned) [Example 111f] | > 25 µM
Nc1ncc2c(n1)CCC(C1c3ccccc3-c3cncn31)C2O (single isomer, unassigned) [Example 111g] | > 25 µM
OC1c2cnncc2CCC1C1c2ccccc2-c2cncn21 (single isomer, unassigned) [Example 112a] | > 25 µM
OC1c2cnncc2CCC1C1c2ccccc2-c2cncn21 (single isomer, unassigned) [Example 112c] | > 25 µM
OC1c2cnncc2CCC1C1c2ccccc2-c2cncn21 (single isomer, unassigned) [Example 112d] | 5.6 µM
OC1c2cnncc2CCC1C1c2ccccc2-c2cncn21 (single isomer, unassigned) [Example 112e] | > 25 µM
OC1c2cnncc2CCC1C1c2ccccc2-c2cncn21 (single isomer, unassigned) [Example 112f] | 3.8 µM
OC1c2cnncc2CCC1C1c2ccccc2-c2cncn21 (single isomer, unassigned) [Example 112g] | 0.27 µM
OC1c2cnncc2CCC1C1c2ccccc2-c2cncn21 (single isomer, unassigned) [Example 112h] | > 25 µM
N#Cc1ccc2c(c1)C(O)C(C1c3ccccc3-c3cncn31)CC2 (single isomer, unassigned) [Example 113b] | 5 µM
N#Cc1ccc2c(c1)C(O)C(C1c3ccccc3-c3cncn31)CC2 (single isomer, unassigned) [Example 113c] | 0.06 µM
N#Cc1ccc2c(c1)C(O)C(C1c3ccccc3-c3cncn31)CC2 (single isomer, unassigned) [Example 113f] | 0.17 µM
N#Cc1ccc2c(c1)C(O)C(C1c3ccccc3-c3cncn31)CC2 (single isomer, unassigned) [Example 113g] | 3.3 µM

SMILES | EC50
CCS(=O)(=O)N1CCC2(CC1)CC(C1c3ccccc3-c3cncn31)C2O (single isomer, unassigned) [Example 114a] | 0.39 µM
CCS(=O)(=O)N1CCC2(CC1)CC(C1c3ccccc3-c3cncn31)C2O (single isomer, unassigned) [Example 114c] | 15 µM
CCS(=O)(=O)N1CCC2(CC1)CC(C1c3ccccc3-c3cncn31)C2O (single isomer, unassigned) [Example 114d] | 0.22 µM
CCS(=O)(=O)N1CCC2(CC1)CC(C1c3ccccc3-c3cncn31)C2O (single isomer, unassigned) [Example 114e] | 1.2 µM
CCS(=O)(=O)N1CCC2(CC1)CC(C1c3ccccc3-c3cncn31)C2O (single isomer, unassigned) [Example 114f] | 0.91 µM
OC1CCCCCC1C1c2ccccc2-c2cncn21 (single isomer, unassigned) [Example 115a, 2-(5H-imidazo[5,1-a]isoindol-5-yl)cycloheptan-1-ol] | 14 µM
OC1CCCCCC1C1c2ccccc2-c2cncn21 (single isomer, unassigned) [Example 115b, 2-(5H-imidazo[5,1-a]isoindol-5-yl)cycloheptan-1-ol] | 3.4 µM
OC1CCCCCC1C1c2ccccc2-c2cncn21 (single isomer, unassigned) [Example 115c, 2-(5H-imidazo[5,1-a]isoindol-5-yl)cycloheptan-1-ol] | 0.05 µM
OC1CCCCCC1C1c2ccccc2-c2cncn21 (single isomer, unassigned) [Example 115d, 2-(5H-imidazo[5,1-a]isoindol-5-yl)cycloheptan-1-ol] | 0.1 µM
CS(=O)(=O)N1CCC(O)(C2c3ccccc3-c3cncn32)C1 (single isomer, unassigned) [Example 116a] | > 25 µM
CS(=O)(=O)N1CCC(O)(C2c3ccccc3-c3cncn32)C1 (single isomer, unassigned) [Example 116b] | 2.5 µM
CS(=O)(=O)N1CCC(O)(C2c3ccccc3-c3cncn32)C1 (single isomer, unassigned) [Example 116c] | > 25 µM
CS(=O)(=O)N1CCC(O)(C2c3ccccc3-c3cncn32)C1 (single isomer, unassigned) [Example 116d] | 0.73 µM
CS(=O)(=O)N1CCC(O)C(C2c3ccc(F)cc3-c3cncn32)C1 (single isomer, unassigned) [Example 118a] | > 25 µM
CS(=O)(=O)N1CCC(O)C(C2c3ccc(F)cc3-c3cncn32)C1 (single isomer, unassigned) [Example 118b] | > 25 µM
CS(=O)(=O)N1CCC(O)C(C2c3ccc(F)cc3-c3cncn32)C1 (single isomer, unassigned) [Example 118c] | 13 µM
CS(=O)(=O)N1CCC(O)C(C2c3ccc(F)cc3-c3cncn32)C1 (single isomer, unassigned) [Example 118d] | > 25 µM
CS(=O)(=O)N1CCC(C2c3ccc(F)cc3-c3cncn32)C(O)C1 (single isomer, unassigned) [Example 119a] | > 25 µM
CS(=O)(=O)N1CCC(C2c3ccc(F)cc3-c3cncn32)C(O)C1 (single isomer, unassigned) [Example 119b] | 8.4 µM
CS(=O)(=O)N1CCC(C2c3ccc(F)cc3-c3cncn32)C(O)C1 (single isomer, unassigned) [Example 119c] | 0.22 µM
O[C@@H]1COCC[C@H]1[C@@H]1c2c(F)cccc2-c2cncn21 (single isomer, unassigned) [Example 120c] | 14 µM
O[C@@H]1COCC[C@H]1[C@@H]1c2c(F)cccc2-c2cncn21 (single isomer, unassigned) [Example 120d] | > 25 µM

SMILES | EC50
Nc1ccc2c(n1)CCC(C1c3ccccc3-c3cncn31)C2O (single isomer, unassigned) [Example 121a] | 0.84 µM
Nc1ccc2c(n1)CCC(C1c3ccccc3-c3cncn31)C2O (single isomer, unassigned) [Example 121b] | > 25 µM
Nc1ccc2c(n1)CCC(C1c3ccccc3-c3cncn31)C2O (single isomer, unassigned) [Example 121c] | 0.22 µM
Nc1ccc2c(n1)CCC(C1c3ccccc3-c3cncn31)C2O (single isomer, unassigned) [Example 121d] | 17 µM
Nc1ccc2c(n1)CCC(C1c3ccccc3-c3cncn31)C2O (single isomer, unassigned) [Example 121e] | 16 µM
Nc1ccc2c(n1)CCC(C1c3ccccc3-c3cncn31)C2O (single isomer, unassigned) [Example 121f] | 24 µM
Nc1ccc2c(n1)CCC(C1c3ccccc3-c3cncn31)C2O (single isomer, unassigned) [Example 121g] | > 25 µM
Nc1ccc2c(n1)CCC(C1c3ccccc3-c3cncn31)C2O (single isomer, unassigned) [Example 121h] | 4.8 µM
NC(=O)c1ccc2c(c1)C(O)C(C1c3ccccc3-c3cncn31)CC2 (single isomer, unassigned) [Example 122b] | 12 µM
NC(=O)c1ccc2c(c1)C(O)C(C1c3ccccc3-c3cncn31)CC2 (single isomer, unassigned) [Example 122c] | 23 µM
NC(=O)c1ccc2c(c1)C(O)C(C1c3ccccc3-c3cncn31)CC2 (single isomer, unassigned) [Example 122d] | 0.37 µM
NC(=O)c1ccc2c(c1)C(O)C(C1c3ccccc3-c3cncn31)CC2 (single isomer, unassigned) [Example 122e] | 0.09 µM
NC(=O)c1ccc2c(c1)C(O)C(C1c3ccccc3-c3cncn31)CC2 (single isomer, unassigned) [Example 122f] | 0.91 µM
O[C@@H]1c2nccnc2CC[C@H]1[C@H]1c2ccccc2-c2cncn21 (single isomer, unassigned) [Example 123a] | 24 µM
O[C@@H]1c2nccnc2CC[C@H]1[C@H]1c2ccccc2-c2cncn21 (single isomer, unassigned) [Example 123b] | 0.23 µM
Cc1ncc2c(n1)CCC(C1c3ccccc3-c3cncn31)C2O (single isomer, unassigned) [Example 124a] | 16 µM
Cc1ncc2c(n1)CCC(C1c3ccccc3-c3cncn31)C2O (single isomer, unassigned) [Example 124b] | 0.29 µM
O[C@@H]1c2ncccc2CC[C@H]1[C@H]1c2ccccc2-c2cncn21 (single isomer, unassigned) [Example 126a] | > 25 µM
O[C@@H]1c2ncccc2CC[C@H]1[C@H]1c2ccccc2-c2cncn21 (single isomer, unassigned) [Example 126b] | 0.083 µM
CC(C)(C)OC(=O)N1CCCC(O)(C2c3ccccc3-c3cncn32)C1 (single isomer, unassigned) [Example 127a] | 3.7 µM
CC(C)(C)OC(=O)N1CCCC(O)(C2c3ccccc3-c3cncn32)C1 (single isomer, unassigned) [Example 127b] | 0.89 µM
